Experimental findings from patent US20160002226A1, “PYRI[…] AND THEIR USE IN THE TREATMENT, AMELIORATION OR PREVENTION OF INFLUENZA” (F. Hoffmann-La Roche AG, priority 2014, published 2016) are described below.

For the first test, the target named is T1, influenza A virus (IAV) PA-Nter fragment (amino acids 1-209) (Influenza A virus, UniProt P31343).
T1 construct: PA-Nter fragment (amino acids 1-209); made in house
Put plainly: FRET endonuclease activity assay. The note with it: PA-Nter 0.5 μM, 1.6 μM RNA substrate. The test is classed as biochemical.
Regarding `Cc1cccc(C(=O)NCc2cc(=O)c(O)c3n2CCN(C(C)C)C3=O)c1`, the IC50 was found to be 1070 nM.
On the same count and under the same terms, as for `CC(C)N1CCn2c(CNS(=O)(=O)c3cn(C)cn3)cc(=O)c(O)c2C1=O`, the figure is 260 nM.
Still for that read-out and setting: the same measure for `CC(C)N1CCn2c(CNS(=O)(=O)c3c(Cl)cccc3Cl)cc(=O)c(O)c2C1=O`: 119 nM; for `CC(C)N1CCn2c(CNS(=O)(=O)c3ccc(Cl)cc3F)cc(=O)c(O)c2C1=O`: 223 nM.
The compound `CC(C)N1CCn2c(CNS(=O)(=O)Cc3ccc(Cl)cc3)cc(=O)c(O)c2C1=O` yielded an IC50 of 603 nM.
On the same count and under the same terms, as for `CC(C)N1CCn2c(CNC(=O)c3ccc(C(F)(F)F)cc3)cc(=O)c(O)c2C1=O`, the figure is 9450 nM.
The compound `CC(C)N1CCn2c(CNC(=O)C3CC3)cc(=O)c(O)c2C1=O` returned an IC50 of 350 nM.
Take `CN1CCn2c(CNS(=O)(=O)c3ccccc3)cc(=O)c(O)c2C1=O`: 27 nM corresponded to half-maximal inhibition (IC50).
Same read-out and setting: as for `CC(C)N1CCn2c(CNS(=O)(=O)C3CC3)cc(=O)c(O)c2C1=O`, the figure is 181 nM; as for `CC(C)N1CCn2c(CNS(=O)(=O)Cc3ccccc3)cc(=O)c(O)c2C1=O`, 187 nM.
Same read-out and setting: the same measure for `CC(C)N1CCn2c(CN(Cc3ccccc3)c3ccccc3)cc(=O)c(O)c2C1=O`: 1180 nM; for `CC(C)N1CCn2c(CN(Cc3ccccc3)C(=O)c3ccccc3)cc(=O)c(O)c2C1=O`: 315 nM.
Same read-out and setting: the same measure for `CC(C)N1CCn2c(CNC(=O)CC3CC3)cc(=O)c(O)c2C1=O`: 300 nM; for `CC(C)N1CCn2c(CNC(=O)c3ccc(C#N)cc3)cc(=O)c(O)c2C1=O`: 400 nM.
`CC(C)N1CCn2c(CN(C)S(=O)(=O)c3ccccc3)cc(=O)c(O)c2C1=O` had an IC50 of 200 nM.
In turn, `Cc1ccc(S(=O)(=O)NCc2cc(=O)c(O)c3n2CCN(C(C)C)C3=O)cc1` registered an IC50 of 203 nM.
Same read-out and setting: the same measure for `CC(C)N1CCn2c(CNC(=O)c3cccn3C)cc(=O)c(O)c2C1=O`: 310 nM.
Same read-out and setting: as for `CC(C)CS(=O)(=O)NCc1cc(=O)c(O)c2n1CCN(C(C)C)C2=O`, the figure is 211 nM; as for `CC(C)N1CCn2c(CNC(=O)[C@]34C[C@H]5C[C@H](C[C@H](C5)C3)C4)cc(=O)c(O)c2C1=O`, 1430 nM.
The same measure, in the same setting: the same measure for `CC(C)N1CCn2c(CNC(=O)CC34C[C@H]5C[C@@H](C3)C[C@@H](C4)C5)cc(=O)c(O)c2C1=O`: 1680 nM.

For another test, the target named is whole RNP complex of IAV strain A/PR/8/34 (Influenza A virus, UniProt P03433). Put plainly: Transcription assay (TA assay). The note with it: RNPs of A/PR/8/34, capped RNA substrate. The test is classed as biochemical.
In the case of `CCN(Cc1cccc2ccccc12)Cc1cc(=O)c(O)c2n1CCN(C(C)C)C2=O`, the IC50 stood at 220 nM.
Consider `CC(C)N1CCn2c(CN(Cc3ccccc3-c3ccccc3)C(=O)C3CC(F)(F)C3)cc(=O)c(O)c2C1=O`, for which the midpoint of inhibition, the IC50, lay at 229 nM.
In the case of `CC(C)N1CCn2c(CN(Cc3cccc(Cl)c3)C3CC3)cc(=O)c(O)c2C1=O`, the IC50 was found to be 171 nM.
Consider `CC(C)N1CCn2c(CN(C)Cc3ccc(-c4ccccc4)cc3)cc(=O)c(O)c2C1=O`, for which the IC50 is 11700 nM.
On the same count and under the same terms, as for `CC(C)N1CCn2c(CN(Cc3cccc4ccccc34)C(=O)C3CC(F)(F)C3)cc(=O)c(O)c2C1=O`, the figure is 253 nM.

In another test the test system is influenza A virus A/Aichi/2/68 (H3N2) on MDCK cells. Put plainly: Cytopathic effect (CPE) assay. The test is classed as cell-based. The note with it: Influenza A virus, 48 hrs, the 1st table.
On to `CCCN(Cc1cc(=O)c(O)c2n1CCN(C(C)C)C2=O)C(=O)c1ccccc1`, for which the IC50 was > 50000 nM.
As to `CCCN(Cc1cc(=O)c(O)c2n1CCN(C(C)C)C2=O)C(C)=O`, the IC50 is > 50000 nM.
In the case of `CC(C)N1CCn2c(CNC3(c4ccccc4)CCCC3)cc(=O)c(O)c2C1=O`, the IC50 is > 50000 nM.
Take `CC(C)N1CCn2c(CN(Cc3ccccc3-c3ccccc3)C3CC3)cc(=O)c(O)c2C1=O`: the concentration for half-maximal inhibition (IC50) was > 50000 nM.
Consider `Cc1cccc(C(=O)NCc2cc(=O)c(O)c3n2CCN(C(C)C)C3=O)c1`, for which the IC50 was > 50000 nM.
On the same count and under the same terms, as for `CC(C)N1CCn2c(CNS(=O)(=O)c3cn(C)cn3)cc(=O)c(O)c2C1=O`, the figure is > 50000 nM; as for `CCCN(Cc1cc(=O)c(O)c2n1CCN(C(C)C)C2=O)C(=O)C1CC1`, > 50000 nM; as for `CC(C)N1CCn2c(CNS(=O)(=O)c3c(Cl)cccc3Cl)cc(=O)c(O)c2C1=O`, > 50000 nM.
The same measure, in the same setting: the same measure for `CC(C)N1CCn2c(CNS(=O)(=O)c3ccc(Cl)cc3F)cc(=O)c(O)c2C1=O`: > 50000 nM; for `CC(C)N1CCn2c(CNS(=O)(=O)Cc3ccc(Cl)cc3)cc(=O)c(O)c2C1=O`: > 50000 nM; for `CC(C)N1CCn2c(CNC(=O)C3CC(F)(F)C3)cc(=O)c(O)c2C1=O`: > 50000 nM.
The same measure, in the same setting: as for `CC(C)N1CCn2c(CNC(=O)c3ccc(C(F)(F)F)cc3)cc(=O)c(O)c2C1=O`, the figure is > 50000 nM; as for `CC(C)N1CCn2c(CNC(=O)C3CC3)cc(=O)c(O)c2C1=O`, > 50000 nM; as for `CN1CCn2c(CNS(=O)(=O)c3ccccc3)cc(=O)c(O)c2C1=O`, > 50000 nM.
As to `CC(C)N1CCn2c(CNS(=O)(=O)C3CC3)cc(=O)c(O)c2C1=O`, the IC50 was > 50000 nM.
Same read-out and setting: the same measure for `CC(C)N1CCn2c(CNS(=O)(=O)Cc3ccccc3)cc(=O)c(O)c2C1=O`: > 50000 nM; for `CC(C)N1CCn2c(CN(Cc3ccccc3)C(=O)c3ccccc3)cc(=O)c(O)c2C1=O`: > 50000 nM.
On the same count and under the same terms, as for `CC(C)N1CCn2c(CNC(=O)CC3CC3)cc(=O)c(O)c2C1=O`, the figure is > 50000 nM; as for `CCCN(Cc1cc(=O)c(O)c2n1CCN(C(C)C)C2=O)C(=O)C1CCCCC1`, > 50000 nM; as for `CC(C)N1CCn2c(CNC(=O)c3ccc(C#N)cc3)cc(=O)c(O)c2C1=O`, > 50000 nM.
On the same count and under the same terms, the same measure for `CC(C)N1CCn2c(CN(Cc3cccc4ccccc34)C3CC3)cc(=O)c(O)c2C1=O`: > 50000 nM.
For `CC(C)N1CCn2c(CN(C)S(=O)(=O)c3ccccc3)cc(=O)c(O)c2C1=O`, the IC50 is > 50000 nM.
On the same count and under the same terms, the same measure for `Cc1ccc(S(=O)(=O)NCc2cc(=O)c(O)c3n2CCN(C(C)C)C3=O)cc1`: > 50000 nM.
As for `CC(C)N1CCn2c(CNC(=O)c3cccn3C)cc(=O)c(O)c2C1=O`, the IC50 is > 50000 nM.
On the same count and under the same terms, the same measure for `CC(C)CS(=O)(=O)NCc1cc(=O)c(O)c2n1CCN(C(C)C)C2=O`: > 50000 nM.
The same measure, in the same setting: as for `CC(C)N1CCn2c(CNC(=O)[C@]34C[C@H]5C[C@H](C[C@H](C5)C3)C4)cc(=O)c(O)c2C1=O`, the figure is > 50000 nM; as for `CC(C)N1CCn2c(CNC(=O)CC34C[C@H]5C[C@@H](C3)C[C@@H](C4)C5)cc(=O)c(O)c2C1=O`, > 50000 nM.

Still in this test, the particulars now being: Influenza A virus, 48 hrs, the 2nd table.
On to `CCN(Cc1cccc2ccccc12)Cc1cc(=O)c(O)c2n1CCN(C(C)C)C2=O`, for which the half-maximal inhibitory concentration (IC50) is > 50000 nM.
With `CC(C)N1CCn2c(CN(Cc3ccccc3-c3ccccc3)C(=O)C3CC(F)(F)C3)cc(=O)c(O)c2C1=O`, the IC50 is > 50000 nM.
The same measure, in the same setting: the same measure for `CC(C)N1CCn2c(CN(Cc3cccc(Cl)c3)C3CC3)cc(=O)c(O)c2C1=O`: > 50000 nM; for `CC(C)N1CCn2c(CN(C)Cc3ccc(-c4ccccc4)cc3)cc(=O)c(O)c2C1=O`: > 50000 nM; for `CC(C)N1CCn2c(CN(Cc3cccc4ccccc34)C(=O)C3CC(F)(F)C3)cc(=O)c(O)c2C1=O`: > 50000 nM.
